Patent US8623429B2, “Stabilized anthocyanin compositions” (Omnica GmbH, priority 2007, dated 2014)
Values belong to the compound of their own block, whether it stands above or below them.

Experiments:
[1] = Example 1: stability of bilberry extract anthocyanosides, 4 hours at 37° C., pH 7.0, with/without DHLA or GSH (HPLC); assay type: physicochemical; details: for % left, GSH (4 hours) / Peak Area, GSH (4 hours): 20 mg reduced L-glutathione; for % left, GSH (4 hours) / Peak Area, GSH (4 hours) / % left, DHLA (4 hours) / Peak Area, DHLA (4 hours) / % left, Blank (4 hours) / Peak Area, Blank (4 hours): pH 7.0, 37° C.; for % left, DHLA (4 hours) / Peak Area, DHLA (4 hours): 30 mg dihydrolipoic acid; for Peak Area, Fresh (0 hours): bilberry extract 60 mg/100 ml sodium phosphate buffer pH 7.0, fresh sample; for % left, Blank (4 hours) / Peak Area, Blank (4 hours): unprotected
Procedure: (0.048 mmol anthocyanosides expressed as cyanidin-3-O-glucoside) were added to a 100 ml flask and filled to volume with sodium phosphate buffer (5% [w/w], pH=7.0), and stirred until dissolution was complete. A 1 ml sample was taken immediately and acidified with formic acid to pH=1.0 and analyzed by HPLC for the content of anthocyanosides (Fresh Sample). The remaining solution was kept for 4 hours at 37° C. (water bath) with stirring. Thereafter another sample (Blank sample), representing unprotected degradation, was taken and acidified.
(0.048 mmol expressed as cyanidin-3-O-glucoside) were then added and the flask was filled to volume with sodium phosphate buffer (5% [w/w], pH=7.0) and kept for 4 hours at 37° C. (water bath) with stirring.
After 4 hours, samples were taken and acidified immediately with formic acid to pH=1.0 and analyzed by HPLC for the content of anthocyanosides. Degradation is expressed as decrease in peak area of individual peaks (calculated as % left after 4 hours).
Quantitation: External standardization based on linear regression analysis. The response factors of all anthocyanosides separated is quantitified against cyanidin-3-O-glucoside.
Test solutions from incubation experiments (with/without cells and with/without stabilizing agents) were used for analysis after stabilization of anthocyanosides with formic acid. Samples were cleared by filtration prior to injection on to HPLC-system.

[2] = Example 2: degradation over time of selected bilberry anthocyanosides at 37° C., pH 7.0, with/without GSH (HPLC); assay type: physicochemical; details: pH 7.0, 37° C.; for %-residual anthocyanosides (% left): 4.30 hours
Procedure: Sample a) 60 mg bilberry extract [37% anthocyanosides] (0.048 mmol expressed as cyanidin-3-O-glucoside) were added to a 100 ml, filled to volume with sodium phosphate buffer (5% [w/w], pH=7.0) and stirred until dissolution was complete. A 1 ml sample was immediately taken and acidified with formic acid to pH=1.0 and analyzed by HPLC for the content of anthocyanosides. The remaining solution was kept at 37° C. (water bath) with stirring and additional 1 ml samples (Blank Samples), representing unprotected degradation, were sampled every 15 minutes. The samples were analyzed for selected anthocyanosides by HPLC.
Sample b) 20 mg reduced L-glutathione (0.065 mmol) were added to a 100 ml flask with 60 ml sodium phosphate buffer (5% [w/w], pH=7.0) and stirred until dissolution was complete. 60 mg bilberry extract [37% anthocyanosides] (0.048 mmol expressed as cyanidin-3-O-glucoside) were added and the flask was filled to volume with sodium phosphate buffer (5% [w/w], pH=7.0) and kept at 37° C. (water bath) with stirring. Every 15 minutes, 1 ml samples were taken and analyzed for selected anthocyanosides by HPLC.
Samples were prepared as outlined below in HPLC Analytical Method. Test stability samples were immediately acidified (to block degradation) and injected undiluted following the detailed description provided below.
HPLC Analytical Method (Materials, Instruments and Methods): […]

Compound: COc1cc(-c2[o+]c3cc(O)cc(O)c3cc2O[C@@H]2OC[C@H](O)[C@H](O)[C@H]2O)cc(OC)c1O [Mv-3O-Ara, Malvidin 3-o-arabinoside]
% left, GSH (4 hours) [1]: 75.0%
Peak Area, GSH (4 hours) [1]: 81.2
% left, DHLA (4 hours) [1]: 69.4%
Peak Area, DHLA (4 hours) [1]: 75.2
Peak Area, Fresh (0 hours) [1]: 108.3
% left, Blank (4 hours) [1]: 34.0%
Peak Area, Blank (4 hours) [1]: 36.8

Compound: COc1cc(-c2[o+]c3cc(O)cc(O)c3cc2O[C@@H]2O[C@H](CO)[C@H](O)[C@H](O)[C@H]2O)cc(OC)c1O [Mv-3O-Gal, Malvidin 3-o-galactoside]
% left, GSH (4 hours) [1]: 74.4%
Peak Area, GSH (4 hours) [1]: 133.2
% left, DHLA (4 hours) [1]: 62.8%
Peak Area, DHLA (4 hours) [1]: 112.5
Peak Area, Fresh (0 hours) [1]: 179.1
% left, Blank (4 hours) [1]: 37.6%
Peak Area, Blank (4 hours) [1]: 67.3

Compound: COc1cc(-c2[o+]c3cc(O)cc(O)c3cc2O[C@@H]2O[C@H](CO)[C@@H](O)[C@H](O)[C@H]2O)cc(OC)c1O [Mv-3O-Glc, Malvidin 3-o-glucoside]
% left, GSH (4 hours) [1]: 73.7%
Peak Area, GSH (4 hours) [1]: 336.2
% left, DHLA (4 hours) [1]: 63.0%
Peak Area, DHLA (4 hours) [1]: 287.4
Peak Area, Fresh (0 hours) [1]: 455.9
% left, Blank (4 hours) [1]: 36.1%
Peak Area, Blank (4 hours) [1]: 164.7

Compound: COc1cc(-c2[o+]c3cc(O)cc(O)c3cc2O[C@@H]2O[C@H](CO)[C@@H](O)[C@H](O)[C@H]2O)ccc1O [Pe-3O-Glc, Peonidin 3-o-glucoside]
% left, GSH (4 hours) [1]: 76.9%
Peak Area, GSH (4 hours) [1]: 172.0
% left, DHLA (4 hours) [1]: 62.3%
Peak Area, DHLA (4 hours) [1]: 139.2
Peak Area, Fresh (0 hours) [1]: 223.6
% left, Blank (4 hours) [1]: 42.4%
Peak Area, Blank (4 hours) [1]: 94.8

Compound: COc1cc(-c2[o+]c3cc(O)cc(O)c3cc2O[C@@H]2OC[C@H](O)[C@H](O)[C@H]2O)cc(O)c1O.[Cl-] [Pt-3O-Ara, Petunidin 3-o-arabinoside]
% left, GSH (4 hours) [1]: 69.4%
Peak Area, GSH (4 hours) [1]: 97.6
% left, DHLA (4 hours) [1]: 66.6%
Peak Area, DHLA (4 hours) [1]: 93.7
Peak Area, Fresh (0 hours) [1]: 140.6
% left, Blank (4 hours) [1]: 16.2%
Peak Area, Blank (4 hours) [1]: 22.8

Compound: COc1cc(-c2[o+]c3cc(O)cc(O)c3cc2OC2OC(CO)C(O)C(O)C2O)cc(O)c1O (stereo not shown) [Pt-3O-Gal, Petunidin 3-o-galactoside]
% left, GSH (4 hours) [1]: 69.3%
Peak Area, GSH (4 hours) [1]: 150.0
% left, DHLA (4 hours) [1]: 61.4%
Peak Area, DHLA (4 hours) [1]: 132.8
Peak Area, Fresh (0 hours) [1]: 216.4
% left, Blank (4 hours) [1]: 18.8%
Peak Area, Blank (4 hours) [1]: 40.7
Peak Area ([2]; Blank Sample, 1:15 h): 124.16
Peak Area ([2]; Blank Sample, 4:15 h): 102.44
Peak Area ([2]; Blank Sample, 4:30 h): 58.78
Peak Area ([2]; Blank sample, 0:00 h): 237.44
Peak Area ([2]; Blank sample, 0:15 h): 179.60
Peak Area ([2]; Blank sample, 0:30 h): 203.39
Peak Area ([2]; Blank sample, 0:45 h): 152.46
Peak Area ([2]; Blank sample, 1:00 h): 161.49
Peak Area ([2]; Blank sample, 1:45 h): 144.59
Peak Area ([2]; Blank sample, 2:00 h): 132.38
Peak Area ([2]; Blank sample, 2:15 h): 121.96
Peak Area ([2]; Blank sample, 2:30 h): 96.36
Peak Area ([2]; Blank sample, 2:45 h): 99.38
Peak Area ([2]; Blank sample, 3:00 h): 127.47
Peak Area ([2]; Blank sample, 3:15 h): 123.02
Peak Area ([2]; Blank sample, 3:30 h): 98.72
Peak Area ([2]; Blank sample, 4:00 h): 107.51
%-residual anthocyanosides (% left) ([2]; Blank): 25%
Peak Area ([2]; GSH Protected Sample (20 mg), 0:30 h): 222.35
Peak Area ([2]; GSH Protected Sample (20 mg), 1:30 h): 202.34
Peak Area ([2]; GSH Protected Sample (20 mg), 2:30 h): 169.36
Peak Area ([2]; GSH Protected Sample (20 mg), 3:30 h): 181.53
Peak Area ([2]; GSH Protected Sample (20 mg), 4:30 h): 181.46
Peak Area ([2]; GSH Protected Sample (20 mg), 4:45 h): 166.84
Peak Area ([2]; GSH protected sample (20 mg), 0:00 h): 248.16
Peak Area ([2]; GSH protected sample (20 mg), 0:15 h): 245.04
Peak Area ([2]; GSH protected sample (20 mg), 0:45 h): 195.63
Peak Area ([2]; GSH protected sample (20 mg), 1:00 h): 213.84
Peak Area ([2]; GSH protected sample (20 mg), 1:15 h): 210.34
Peak Area ([2]; GSH protected sample (20 mg), 1:45 h): 194.88
Peak Area ([2]; GSH protected sample (20 mg), 2:00 h): 193.23
Peak Area ([2]; GSH protected sample (20 mg), 2:15 h): 199.06
Peak Area ([2]; GSH protected sample (20 mg), 2:45 h): 183.97
Peak Area ([2]; GSH protected sample (20 mg), 3:00 h): 189.41
Peak Area ([2]; GSH protected sample (20 mg), 3:15 h): 185.92
Peak Area ([2]; GSH protected sample (20 mg), 3:45 h): 173.03
Peak Area ([2]; GSH protected sample (20 mg), 4:00 h): 193.79
Peak Area ([2]; GSH protected sample (20 mg), 4:15 h): 179.46
%-residual anthocyanosides (% left) ([2]; GSH-protected): 67%
%-residual anthocyanosides (% left) ([2]; GSH-protected, listed as petunidin-3-O-Galactose): 67%

Other lines, results leading:

% left, GSH (4 hours) [1]: 79.5%
Peak Area, GSH (4 hours) [1]: 293.7
% left, DHLA (4 hours) [1]: 70.2%
Peak Area, DHLA (4 hours) [1]: 258.4
Peak Area, Fresh (0 hours) [1]: 369.6
% left, Blank (4 hours) [1]: 38.5%
Peak Area, Blank (4 hours) [1]: 142.3
Compound: Oc1cc(O)c2cc(O[C@@H]3OC[C@H](O)[C@H](O)[C@H]3O)c(-c3ccc(O)c(O)c3)[o+]c2c1 [Cn-3O-Ara, Cyanidin 3-o-arabinoside]

% left, GSH (4 hours) [1]: 50.2%
Peak Area, GSH (4 hours) [1]: 283.6
% left, DHLA (4 hours) [1]: 64.5%
Peak Area, DHLA (4 hours) [1]: 364.4
Peak Area, Fresh (0 hours) [1]: 564.9
% left, Blank (4 hours) [1]: 6.9%
Peak Area, Blank (4 hours) [1]: 39.1
Compound: Oc1cc(O)c2cc(O[C@H]3OC[C@H](O)[C@H](O)[C@H]3O)c(-c3cc(O)c(O)c(O)c3)[o+]c2c1 [Dp-3O-Ara, Delphinidin 3-o-arabinoside]

% left, GSH (4 hours) [1]: 66.7%
Peak Area, GSH (4 hours) [1]: 315.6
% left, DHLA (4 hours) [1]: 57.4%
Peak Area, DHLA (4 hours) [1]: 271.9
Peak Area, Fresh (0 hours) [1]: 473.4
% left, Blank (4 hours) [1]: 16.6%
Peak Area, Blank (4 hours) [1]: 78.8
Compound: COc1cc(-c2[o+]c3cc(O)cc(O)c3cc2O[C@@H]2O[C@H](CO)[C@@H](O)[C@H](O)[C@H]2O)cc(O)c1O [Pt-3O-Glc, Petunidin 3-o-glucoside]
